Reference: paper PMC13278354, “The competitive interplay of 12‐oxophytodienoic acid (OPDA), protein thiols, and glutathione” (The Febs Journal, 2026)

Experiments:
[1] = molecular target: T1, TRX-f1 (Arabidopsis thaliana, UniProt Q9XFH8); test: intrinsic tryptophan fluorescence quenching; format: binding; details: covalent; 15 uM reduced protein, 150 uM OPDA, 3 h, RT, 50 mM KPi pH 7.2
T1 construct: gene At3g02730; recombinant His-tagged, without transit peptide, E. coli NiCo21(DE3)
T1 sequence (Q9XFH8 58-178): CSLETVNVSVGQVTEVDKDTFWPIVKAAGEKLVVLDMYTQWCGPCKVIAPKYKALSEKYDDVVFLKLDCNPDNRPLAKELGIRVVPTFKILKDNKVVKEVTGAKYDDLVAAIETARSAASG

[2] = molecular target: T1, TRX-f1; test: insulin reduction assay (turbidity, A650); format: biochemical; details: covalent; 20 uM TRX pre-incubated with 80 uM OPDA, RT; assay pH 7.2, 1 mM DTT
[3] = molecular target: T2, TRX-m4 (Arabidopsis thaliana, UniProt Q9SEU6); test: insulin reduction assay (turbidity, A650); format: biochemical; details: covalent; 20 uM TRX pre-incubated with 80 uM OPDA, RT; assay pH 7.2, 1 mM DTT
T2 construct: gene At3g15360; recombinant His-tagged, without transit peptide, E. coli NiCo21(DE3)
T2 sequence (Q9SEU6 83-193): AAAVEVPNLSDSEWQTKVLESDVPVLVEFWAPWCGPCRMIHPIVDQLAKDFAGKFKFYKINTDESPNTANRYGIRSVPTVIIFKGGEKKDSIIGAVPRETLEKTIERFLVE

[4] = molecular target: T3, TRX-h3 (Arabidopsis thaliana, UniProt Q42403); test: insulin reduction assay (turbidity, A650); format: biochemical; details: covalent; 20 uM TRX pre-incubated with 80 uM OPDA, RT; assay pH 7.2, 1 mM DTT
T3 construct: gene TRX3; recombinant His-tagged, E. coli NiCo21(DE3); cytosolic, no transit peptide
T3 sequence (Q42403 1-118): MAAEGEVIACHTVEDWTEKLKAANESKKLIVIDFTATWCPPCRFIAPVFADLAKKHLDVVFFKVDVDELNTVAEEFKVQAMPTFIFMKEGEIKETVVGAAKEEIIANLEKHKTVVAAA

[5] = molecular target: T2, TRX-m4; test: intrinsic tryptophan fluorescence quenching; format: binding; details: covalent; 15 uM reduced protein, 150 uM OPDA, 3 h, RT, 50 mM KPi pH 7.2

- change of maximal fluorescence intensity [1]: –14.5 relative units
- residual activity [2]: 67%
- residual activity [3]: 71%
- residual activity [4]: 47%
- change of maximal fluorescence intensity [5]: –16.3 relative units
Compound: CC/C=C\C[C@@H]1C(=O)C=C[C@@H]1CCCCCCCC(=O)O [OPDA]
